Measurements reported in paper PMC11249626, “Fluorophore-Labeled Pyrrolones Targeting the Intracellular Allosteric Binding Site of the Chemokine Receptor CCR1” (ACS Pharmacology & Translational Science, 2024).

Target: T1, CCR2 (Homo sapiens, UniProt P41597)
T1 construct: host or cells: HEK293T, transient
T1 sequence (P41597 1-360 isoform P41597-2): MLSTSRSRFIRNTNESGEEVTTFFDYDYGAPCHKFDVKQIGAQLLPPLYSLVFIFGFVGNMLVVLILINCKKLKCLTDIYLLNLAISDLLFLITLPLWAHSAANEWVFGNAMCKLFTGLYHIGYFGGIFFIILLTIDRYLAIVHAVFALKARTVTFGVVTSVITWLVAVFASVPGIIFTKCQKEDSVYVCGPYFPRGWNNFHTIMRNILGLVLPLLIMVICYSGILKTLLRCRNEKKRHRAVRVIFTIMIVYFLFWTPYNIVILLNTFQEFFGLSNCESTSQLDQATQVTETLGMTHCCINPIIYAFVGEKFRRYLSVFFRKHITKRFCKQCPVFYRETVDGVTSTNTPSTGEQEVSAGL
Assay: Membrane-based NanoBRET saturation binding assay, CCR2_GSSG_Nluc membranes
Experimental: Emission spectra of Nluc -labeled CCR1 (CCR1_Nluc) protein: The emission spectra of CCR1_Nluc has already been reported by Toy et al.1 For a confirmation of the reported data with new CCR1_Nluc membrane batches, furimazine (Promega, Mannheim, Germany 1:2000) was added to the membrane preparations (2 µg protein/well). […]
NanoBRET binding assays: Membrane-based NanoBRET saturation assay: For the establishment of our NanoBRET binding assay, we referred to recently published protocols. […]
Then, 20 µL of the membrane preparations diluted in assay buffer (3 µg total protein/well) were added and the plates were incubated for 90 min at 37 °C. Subsequently, 5 µL of a furimazine solution (Promega, Mannheim, Germany, final assay dilution: 1:5,000) were added to each well (final assay volume: 35 µL) before measuring luminescence with a CLARIOstar microplate reader using 620/10 nm and 475/30 nm emission filters after 5 min of incubation in the dark. Bioluminescence resonance energy transfer (BRET) was determined as the ratio of acceptor fluorescence and donor luminescence. […] Specific binding signals were calculated as a difference of total and non-specific binding. If required, netBRET values were calculated as the difference between total BRET values and the values obtained in the absence of a fluorescent ligand. […]

Kd [nM] | SMILES
1980 ± 270 | CN(C)c1ccc2c(-c3cc(C(=O)NCCOCCOCc4cn(CCCC(=O)C5=C(O)C(=O)N(c6ccc(Cl)cc6F)C5C5CCCCC5)nn4)ccc3C(=O)[O-])c3ccc(=[N+](C)C)cc-3oc2c1 (centres unmarked) [compound 11]
1690 ± 310 | CN(C)c1ccc2c(-c3cc(C(=O)NCCOCCOCc4cn(CCCC(=O)C5=C(O)C(=O)N(c6ccc(Br)cc6F)C5C5CCCCC5)nn4)ccc3C(=O)[O-])c3ccc(=[N+](C)C)cc-3oc2c1 (centres unmarked) [compound 12]
